Our source for the Emax and EC50 values is patent US12459952B2, “TREM2 modulators” (Muna Therapeutics ApS, priority 2024, dated 2025).

Bounds are passed on as bounds.

For this experiment, the target named is T1, Human TREM2 (Homo sapiens, UniProt Q9NZC2).
T1 construct: expressed in transfected cells
Briefly: Human TREM2 cellular phospho-Syk AlphaLISA assay in HEK293/DAP12+TREM2 stable cell line. It is filed as cell-based. The following applies: HEK293/DAP12+TREM2 cells; for Emax: maximal response relative to the maximal response of the reference agonist, phospho-Syk AlphaLISA; for EC50: phospho-Syk (Tyr525/526) AlphaLISA signal, 30 min incubation. The text has this:
Human TREM2, in vitro Measurement of Triggering Receptor Expressed on Myeloid Cells 2 activity using cellular phosphorylation of Spleen Tyrosine Kinase (“Syk”) Assay
HEK-293 cells were co-transfected with separate plasmids encoding TREM2 and DAP12 to generate a stable cell line. After antibiotic selection, functional clone pool analysis and two successive limiting dilutions, the final clone “HEK293/DAP12+TREM2” underwent a qPCR analysis and a pharmacological validation.
TREM2 signaling through DAP12 was monitored in the HEK293/DAP12+TREM2 stable cell line by measuring the phosphorylation levels of the Syk kinase using the commercially available AlphaLISA SureFire Ultra p-SYK (Tyr525/526) Assay Kit (PerkinElmer #ALSU-PSYK), based on the Perkin Elmer AlphaScreen/AlphaLISA technology.
Compounds are transferred to the test plate and tested in full dose response, 8 concentrations in quadruplicate data points. Compound serial dilutions were performed at Cybi-Felix instrument in 100% DMSO and the dose response curves were assembled in automated fashion in 384MPT at Hamilton STARlet instrument. All the stock solutions were prepared at 20 mM in 100% DMSO. For compounds testing, the starting concentration was 100 μM, dilution steps 1:6. A different concentration's range was adapted for compound's activity based on the preliminary results. Finally, a 384MPT reformatted for all compounds at 8 concentrations, quadruplicates, was used as “mother to child” process with a CyBi@-Well dispenser in which 1 μL of each compound was moved into a destination plate pre-filled with […] of EMEM cell culture medium (BIOWHITTAKER_cat.BE12-125F), thus obtaining 3× concentrated compounds working solution. In columns 1-2 and 23-24 the control wells were added. In particular, dose response curves of a reference control agonist were included in column 1 and 24 as reference control agonist (Reference control agonists used include Human TREM2 polyclonal Antibody AF1828: R&D Systems; Human TREM2 monoclonal Antibody MAB1828: R&D Systems). The dose response curves were tested starting at 30 μM, dilution step 1:6. Both “source” compound plate and “destination” compound plate were barcoded and a relationship between the two plates was thus generated.
HEK293/DAP12+TREM2 cells were cultured in EMEM medium supplemented with IX Penicillin/Streptomycin (BIOWHITTAKER_cat.DE17-602E), ULTRAGLUTAMINE I 200 mM, 10% Fetal Bovine Serum plus antibiotics referred to as “HEK293 Culture Medium”. The day before the experiment, cells were detached by gentle wash with DPBS, followed by 5 min incubation at 37° C. with Trypsin solution. Cells were then diluted in HEK293 Culture Medium without antibiotics, counted and seeded into 384-well poly-D-Lysine coated microplates black/clear bottom (GREINER 781946) at a density of 10,000 cells/well in 25 μL/well by the use of a MATRIX WellMate dispenser. Plates were placed into a humidified cell culture incubator at 37° C. with 5% CO2 until the experimental day. 20-24 hours after seeding mature medium was removed and replaced with 10 μL/well of EMEM cell medium supplemented with 0.1% Pluronic F-68 non-ionic surfactant (Thermofisher, 24040032), referred to as “Assay Buffer”, using the CyBi@-Well instrument. Then 5 μL/well of Assay Buffer containing 3× concentrated test compounds or the reference control agonist (in 0.5% final DMSO concentration) were added to the cells with the CyBi@-Well instrument. Cell plates were incubated for 30 min into a humidified cell culture incubator at 37° C. with 5% CO2, then the medium was removed by manually discard. 20 μL/well of lysis buffer were dispensed using the CyBi@-Well instrument and plates were incubated for 10 min at room temperature on a plate shaker (350 rpm). Then, 10 μL/well of lysate were transferred to the Alpha plates.
The CyBi@-Well instrument was used to dispense 5 μL/well of AlphaLISA Acceptor Bead Solution in IX Immunoassay buffer (Perkin Elmer AL000F). […]

T1 sequence (Q9NZC2 19-230): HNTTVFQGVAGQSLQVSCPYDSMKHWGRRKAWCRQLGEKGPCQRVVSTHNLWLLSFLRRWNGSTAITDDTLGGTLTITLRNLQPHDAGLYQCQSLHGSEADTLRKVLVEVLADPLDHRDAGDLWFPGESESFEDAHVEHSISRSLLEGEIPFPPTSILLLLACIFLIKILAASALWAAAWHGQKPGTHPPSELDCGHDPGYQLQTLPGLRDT
T1 sequence (O43914 22-113 partner): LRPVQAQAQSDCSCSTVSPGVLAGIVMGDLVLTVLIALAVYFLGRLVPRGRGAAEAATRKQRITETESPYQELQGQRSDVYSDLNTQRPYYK

`Cn1c(C(F)(F)F)nc2c(-c3ccc(C#N)cc3F)nc(N3CC(Oc4cnn(CC(F)(F)F)c4)C3)nc2c1=O` [Example 19, 3-fluoro-4-(7-methyl-8-oxo-2-(3-((1-(2,2,2-trifluoroethyl)-1H-pyrazol-4-yl)oxy)azetidin-1-yl)-6-(trifluoromethyl)-7,8-dihydropyrimido[5,4-d]pyrimidin-4-yl)benzonitrile] yielded an Emax of 75 to 110% and an EC50 of 10 to 100 nM.

Molecule `Cn1cc(-c2nc(N3CC(Oc4cnn(C5CC5)c4)C3)nc3c(=O)n(C)c(C(F)(F)F)nc23)ccc1=O` [Example 39, 6-(3-((1-cyclopropyl-1H-pyrazol-4-yl)oxy)azetidin-1-yl)-3-methyl-8-(1-methyl-6-oxo-1,6-dihydropyridin-3-yl)-2-(trifluoromethyl)pyrimido[5,4-d]pyrimidin-4(3H)-one] registered an Emax of 75 to 110% and an EC50 of 100 to 1000 nM.

The molecule `Cn1c(C(F)(F)F)nc2c(-c3ccc(C#N)cc3F)nc(N3CC(Oc4cnn(C5CCCC5)c4)C3)nc2c1=O` [Example 18, 4-(2-(3-((1-cyclopentyl-1H-pyrazol-4-yl)oxy)azetidin-1-yl)-7-methyl-8-oxo-6-(trifluoromethyl)-7,8-dihydropyrimido[5,4-d]pyrimidin-4-yl)-3-fluorobenzonitrile] showed an Emax of 75 to 110% and an EC50 of less than 10 nM.

With `Cn1c(C(F)(F)F)nc2c(-c3ccc(C#N)cc3F)nc(N3CC(Oc4ccnc(C(F)F)c4)C3)nc2c1=O` [Example 23, 4-(2-(3-((2-(difluoromethyl)pyridin-4-yl)oxy)azetidin-1-yl)-7-methyl-8-oxo-6-(trifluoromethyl)-7,8-dihydropyrimido[5,4-d]pyrimidin-4-yl)-3-fluorobenzonitrile], the Emax is 75 to 110% and the 50% effective concentration (EC50) was in the range of 10 to 100 nM.

`Cn1c(C(F)(F)F)nc2c(-c3ccc(C#N)cc3F)nc(N3CC(Oc4nncs4)C3)nc2c1=O` [Example 2, 4-(2-(3-((1,3,4-thiadiazol-2-yl)oxy)azetidin-1-yl)-7-methyl-8-oxo-6-(trifluoromethyl)-7,8-dihydropyrimido[5,4-d]pyrimidin-4-yl)-3-fluorobenzonitrile] came in with a maximal effect (Emax) of less than 75% and an EC50 greater than 1000 nM.

Turning to `Cn1c(C(F)(F)F)nc2c(-c3ccc(C#N)cc3F)nc(N3CC(Oc4ccnc(C#N)c4)C3)nc2c1=O` [Example 20, 4-((1-(4-(4-cyano-2-fluorophenyl)-7-methyl-8-oxo-6-(trifluoromethyl)-7,8-dihydropyrimido[5,4-d]pyrimidin-2-yl)azetidin-3-yl)oxy)picolinonitrile], the Emax lay within 75 to 110% and the EC50 fell in the range of 10 to 100 nM.

In turn, `Cn1c(C(F)(F)F)nc2c(-c3ccc(C#N)cc3F)nc(N3CC(Oc4cnn(CC(F)F)c4)C3)nc2c1=O` [Example 17, 4-(2-(3-((1-(2,2-difluoroethyl)-1H-pyrazol-4-yl)oxy)azetidin-1-yl)-7-methyl-8-oxo-6-(trifluoromethyl)-7,8-dihydropyrimido[5,4-d]pyrimidin-4-yl)-3-fluorobenzonitrile] showed an Emax of 75 to 110% and an EC50 of 100 to 1000 nM.

Molecule `Cn1c(C(F)(F)F)nc2c(-c3ccc(C#N)cc3F)nc(N3CC(Oc4cnn(C(F)F)c4)C3)nc2c1=O` [Example 14, 4-(2-(3-((1-(difluoromethyl)-1H-pyrazol-4-yl)oxy)azetidin-1-yl)-7-methyl-8-oxo-6-(trifluoromethyl)-7,8-dihydropyrimido[5,4-d]pyrimidin-4-yl)-3-fluorobenzonitrile] came in with a maximum response (Emax) of 75 to 110% and an EC50 of 10 to 100 nM.

For `Cn1c(C(F)(F)F)nc2c(-c3ccc(C#N)cc3F)nc(N3CC(Oc4cnn(C5CC5)c4)C3)nc2c1=O` [Example 1, 4-(2-(3-((1-cyclopropyl-1H-pyrazol-4-yl)oxy)azetidin-1-yl)-7-methyl-8-oxo-6-(trifluoromethyl)-7,8-dihydropyrimido[5,4-d]pyrimidin-4-yl)-3-fluorobenzonitrile], the Emax lay in the range of 75 to 110% and the 50% effective concentration (EC50) is less than 10 nM.

`Cc1ncncc1OC1CN(c2nc(-c3ccc(C#N)cc3F)c3nc(C(F)(F)F)n(C)c(=O)c3n2)C1` [Example 29, 3-fluoro-4-(7-methyl-2-(3-((4-methylpyrimidin-5-yl)oxy)azetidin-1-yl)-8-oxo-6-(trifluoromethyl)-7,8-dihydropyrimido[5,4-d]pyrimidin-4-yl)benzonitrile] displayed an Emax of less than 75% and an EC50 of 100 to 1000 nM.

`Cn1c(C(F)(F)F)nc2c(-c3ccc(F)cc3F)nc(N3CC(Cc4cnn(C5CC5)c4)C3)nc2c1=O` [Example 31, 6-(3-((1-cyclopropyl-1H-pyrazol-4-yl)methyl)azetidin-1-yl)-8-(2,4-difluorophenyl)-3-methyl-2-(trifluoromethyl)pyrimido[5,4-d]pyrimidin-4(3H)-one] returned an Emax of 75 to 110% and an EC50 of 100 to 1000 nM.

On to `Cc1n[nH]c(C)c1OC1CN(c2nc(-c3ccc(C#N)cc3F)c3nc(C(F)(F)F)n(C)c(=O)c3n2)C1` [Example 9, 4-(2-(3-((3,5-dimethyl-1H-pyrazol-4-yl)oxy)azetidin-1-yl)-7-methyl-8-oxo-6-(trifluoromethyl)-7,8-dihydropyrimido[5,4-d]pyrimidin-4-yl)-3-fluorobenzonitrile], for which the Emax lay within 75 to 110% and the EC50 lay in the range of 100 to 1000 nM.

Turning to `COc1cc(OC2CN(c3nc(-c4ccc(C#N)cc4F)c4nc(C(F)(F)F)n(C)c(=O)c4n3)C2)ccn1` [Example 21, 3-fluoro-4-(2-(3-((2-methoxypyridin-4-yl)oxy)azetidin-1-yl)-7-methyl-8-oxo-6-(trifluoromethyl)-7,8-dihydropyrimido[5,4-d]pyrimidin-4-yl)benzonitrile], the Emax fell in the range of 75 to 110% and the EC50 was less than 10 nM.

Take `Cn1c(C(F)(F)F)nc2c(-c3ccc(C#N)nc3)nc(N3CC(Oc4cnn(C5CC5)c4)C3)nc2c1=O` [Example 38, 5-(2-(3-((1-cyclopropyl-1H-pyrazol-4-yl)oxy)azetidin-1-yl)-7-methyl-8-oxo-6-(trifluoromethyl)-7,8-dihydropyrimido[5,4-d]pyrimidin-4-yl)picolinonitrile]: the Emax is 75 to 110% and the EC50 lay within 100 to 1000 nM.

For `CCCn1cc(OC2CN(c3nc(-c4ccc(C#N)cc4F)c4nc(C(F)(F)F)n(C)c(=O)c4n3)C2)cn1` [Example 12, 3-fluoro-4-(7-methyl-8-oxo-2-(3-((1-propyl-1H-pyrazol-4-yl)oxy)azetidin-1-yl)-6-(trifluoromethyl)-7,8-dihydropyrimido[5,4-d]pyrimidin-4-yl)benzonitrile], the Emax fell in the range of 75 to 110% and the concentration giving a half-maximal response (EC50) fell in the range of 100 to 1000 nM.

In the case of `Cn1c(C(F)(F)F)nc2c(-c3ccc(C#N)cc3F)nc(N3CC(Oc4cnn(C5CC5)c4)C3)cc2c1=O` [Example 41, 4-(6-(3-((1-cyclopropyl-1H-pyrazol-4-yl)oxy)azetidin-1-yl)-3-methyl-4-oxo-2-(trifluoromethyl)-3,4-dihydropyrido[3,4-d]pyrimidin-8-yl)-3-fluorobenzonitrile], the Emax fell in the range of 75 to 110% and the EC50 lay in the range of 100 to 1000 nM.

The molecule `CN(c1cnn(C2CC2)c1)C1CN(c2nc(-c3ccc(F)cc3F)c3nc(C(F)(F)F)n(C)c(=O)c3n2)C1` [Example 33, 6-(3-((1-cyclopropyl-1H-pyrazol-4-yl)(methyl)amino)azetidin-1-yl)-8-(2,4-difluorophenyl)-3-methyl-2-(trifluoromethyl)pyrimido[5,4-d]pyrimidin-4(3H)-one] returned an Emax of 75 to 110% and an EC50 of 100 to 1000 nM.
